US8889704B2 (Array BioPharma Inc., priority 2011, dated 2014)
Counter-ions that a name gives are not always drawn.

What was measured:
Format in all cases: biochemical
PIM-1 = PIM-1 (Homo sapiens, UniProt P11309); assay: Enzyme PIM-1 Assay ([33P]ATP incorporation into PIM2tide, filter plate); settings: averaged IC50; 35 μM ATP, 7.5 μM PIM2tide, 0.25 nM PIM-1, 60 min at 22° C.
In short: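 Ten-point, 3-fold dilution series (10 μM top, 2% DMSO final) tested for inhibition of 33P transfer from 35 μM ATP to 7.5 μM PIM2tide by 0.25 nM PIM-1. Reaction 60 min, 22 °C, pH 7.4 MOPS/MgCl2 buffer; phosphocellulose capture, scintillation counting, IC50 where fitted POC equals 50.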

[1] = target: T1, GST-tagged recombinant full-length human Pim-2 (Homo sapiens, UniProt Q9P1W9); assay: PIM-2 Assay (as Example A); settings: averaged IC50; 4 μM ATP, 1.0 μM PIM2tide, 1.5 nM Pim-2
T1 construct: GST-tagged recombinant full-length human Pim-2; GST
In short: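 IC50 was derived by 4-parameter logistic fitting of percent-of-control data over a 10-point, 3-fold series (highest 10 μM, 2% DMSO). Reactions held 1.5 nM GST-Pim-2 (full-length, human), 4 μM [γ-33P]ATP and 1.0 μM PIM2tide for 60 min at 22 °C, pH 7.4; 33P-peptide captured on P81 filters.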

recombinant rat PIM-3 = recombinant rat PIM-3 (Rattus norvegicus, UniProt O70444); assay: PIM-3 Assay (as Example A); settings: averaged IC50; 30 μM ATP, 3.75 μM PIM2tide, 0.5 nM PIM-3
In short: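 33P incorporation from 30 μM [γ-33P]ATP into 3.75 μM PIM2tide by 0.5 nM rat PIM-3, 60 min at 22 °C in pH 7.4 MOPS buffer, read by P81 filter capture and scintillation counting. Compounds tested in 3-fold dilutions up to 10 μM final, 2% DMSO; percent-of-control data fitted by 4-parameter logistic for IC50.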

T1 sequence (Q9P1W9 whole entry): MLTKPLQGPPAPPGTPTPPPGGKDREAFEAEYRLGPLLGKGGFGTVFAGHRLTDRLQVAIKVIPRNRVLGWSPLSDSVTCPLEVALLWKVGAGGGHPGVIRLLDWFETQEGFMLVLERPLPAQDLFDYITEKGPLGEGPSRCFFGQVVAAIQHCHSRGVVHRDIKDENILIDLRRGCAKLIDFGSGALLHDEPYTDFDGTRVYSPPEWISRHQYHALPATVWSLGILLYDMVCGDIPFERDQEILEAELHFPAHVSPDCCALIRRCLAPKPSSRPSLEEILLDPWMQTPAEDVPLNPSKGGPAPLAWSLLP
Chain of PIM-1 (P11309 whole entry, species assumed): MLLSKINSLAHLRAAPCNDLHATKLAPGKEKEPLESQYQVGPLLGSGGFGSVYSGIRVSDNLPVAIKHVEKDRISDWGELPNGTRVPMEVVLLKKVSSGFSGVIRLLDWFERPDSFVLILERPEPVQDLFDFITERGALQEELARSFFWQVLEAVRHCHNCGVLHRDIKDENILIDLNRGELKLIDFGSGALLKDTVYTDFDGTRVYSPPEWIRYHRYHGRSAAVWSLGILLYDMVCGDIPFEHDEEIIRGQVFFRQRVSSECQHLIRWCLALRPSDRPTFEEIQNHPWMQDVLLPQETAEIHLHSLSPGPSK

IC50 (PIM-1)	IC50 [1]	IC50 (recombinant rat PIM-3)	Structure (SMILES)
1.84 nM	> 100 nM	18 nM	CC(C)Oc1c(C#N)ccc2ccc(-c3nnc4ccc([C@@H](N5CC[C@H](N)C5)C(F)(F)F)cn34)nc12 [Example 75, 2-(6-((R)-1-((S)-3-aminopyrrolidin-1-yl)-2,2,2-trifluoroethyl)-[1,2,4]triazolo[4,3-a]pyridin-3-yl)-8-isopropoxyquinoline-7-carbonitrile dihydrochloride]
0.4 nM	52 nM	3.6 nM	FC(F)(F)[C@H](c1ccc2nnc(-c3ccc4cccc(OCC5CC5)c4n3)n2c1)N1C[C@@H]2C[C@H]1CN2 [Example 76, 2-(6-((S)-1-((1S,4S)-2,5-diazabicyclo[2.2.1]heptan-2-yl)-2,2,2-trifluoroethyl)-[1,2,4]triazolo[4,3-a]pyridin-3-yl)-8-(cyclopropylmethoxy)quinoline dihydrochloride]
0.16 nM	10 nM	0.3 nM	FC(F)(F)[C@H](c1ccc2nnc(-c3ccc4ccc(C5CC5)cc4n3)n2c1)N1C[C@@H]2C[C@H]1CN2 [Example 77, 2-(6-((S)-1-((1S,4S)-2,5-diazabicyclo[2.2.1]heptan-2-yl)-2,2,2-trifluoroethyl)-[1,2,4]triazolo[4,3-a]pyridin-3-yl)-7-cyclopropylquinoline dihydrochloride]
0.24 nM	> 100 nM	10 nM	O[C@@H]1CN([C@H](c2ccc3nnc(-c4ccc5cccc(C6CC6)c5n4)n3c2)C(F)(F)F)C[C@H]1O [Example 78, (3R,4R)-1-((R)-1-(3-(8-cyclopropylquinolin-2-yl)-[1,2,4]triazolo[4,3-a]pyridin-6-yl)-2,2,2-trifluoroethyl)pyrrolidine-3,4-diol]
0.16 nM	58 nM	3 nM	CCOc1cccc2ccc(-c3nnc4ccc([C@@H](N5CC[C@H](N)C5)C(F)(F)F)cn34)nc12 [Example 79, (S)-1-((R)-1-(3-(8-ethoxyquinolin-2-yl)-[1,2,4]triazolo[4,3-a]pyridin-6-yl)-2,2,2-trifluoroethyl)pyrrolidin-3-amine]
6.41 nM	> 100 nM	32 nM	COc1cccc2ccc(-c3nnc4ccc([C@@H](N5CC[C@H](NCCF)C5)C(F)(F)F)cn34)nc12 [Example 80, (S)—N-(2-fluoroethyl)-1-((R)-2,2,2-trifluoro-1-(3-(8-methoxyquinolin-2-yl)-[1,2,4]triazolo[4,3-a]pyridin-6-yl)ethyl)pyrrolidin-3-amine dihydrochloride]
0.37 nM	> 100 nM	2.8 nM	CC(C)Oc1cccc2ccc(-c3nnc4ccc([C@@H](N5CC[C@H](NCCF)C5)C(F)(F)F)cn34)nc12 [Example 81, (S)—N-(2-fluoroethyl)-1-((R)-2,2,2-trifluoro-1-(3-(8-isopropoxyquinolin-2-yl)-[1,2,4]triazolo[4,3-a]pyridin-6-yl)ethyl)pyrrolidin-3-amine dihydrochloride]
1.13 nM	28 nM	1 nM	CC(C)(C)NC(=O)c1ccc2ccc(-c3nnc4ccc([C@@H](N5CC[C@H](N)C5)C(F)(F)F)cn34)nc2c1C1CC1 [Example 83, 2-(6-((R)-1-((S)-3-aminopyrrolidin-1-yl)-2,2,2-trifluoroethyl)-[1,2,4]triazolo[4,3-a]pyridin-3-yl)-N-tert-butyl-8-cyclopropylquinoline-7-carboxamide dihydrochloride]
0.73 nM	> 100 nM	12 nM	N#Cc1ccc2ccc(-c3nnc4ccc([C@@H](N5CC[C@H](N)C5)C(F)(F)F)cn34)nc2c1 [Example 84, 2-(6-((R)-1-((S)-3-aminopyrrolidin-1-yl)-2,2,2-trifluoroethyl)-[1,2,4]triazolo[4,3-a]pyridin-3-yl)quinoline-7-carbonitrile]
0.14 nM	31 nM	0.3 nM	CC(C)Oc1cc(F)cc2ccc(-c3nnc4ccc([C@@H](N5CC[C@H](N)C5)C(F)(F)F)cn34)nc12 [Example 86, (S)-1-((R)-2,2,2-trifluoro-1-(3-(6-fluoro-8-isopropoxyquinolin-2-yl)-[1,2,4]triazolo[4,3-a]pyridin-6-yl)ethyl)pyrrolidin-3-amine hydrochloride]
35.5 nM	> 100 nM	> 100 nM	CC(C)NC(=O)c1cccc2ccc(-c3nnc4ccc([C@@H](N5CC[C@H](N)C5)C(F)(F)F)cn34)nc12 [Example 87, 2-(6-((R)-1-((S)-3-aminopyrrolidin-1-yl)-2,2,2-trifluoroethyl)-[1,2,4]triazolo[4,3-a]pyridin-3-yl)-N-isopropylquinoline-8-carboxamide dihydrochloride]
3.26 nM	> 100 nM	18 nM	N#Cc1cccc2ccc(-c3nnc4ccc([C@@H](N5CC[C@H](N)C5)C(F)(F)F)cn34)nc12 [Example 88, 2-(6-((R)-1-((S)-3-aminopyrrolidin-1-yl)-2,2,2-trifluoroethyl)-[1,2,4]triazolo[4,3-a]pyridin-3-yl)quinoline-8-carbonitrile dihydrochloride]
5.38 nM	> 100 nM	14 nM	N#Cc1cccc2ccc(-c3nnc4ccc([C@@H](N5C[C@@H]6C[C@H]5CN6)C(F)(F)F)cn34)nc12 [Example 89, 2-(6-((R)-1-((1S,4S)-2,5-diazabicyclo[2.2.1]heptan-2-yl)-2,2,2-trifluoroethyl)-[1,2,4]triazolo[4,3-a]pyridin-3-yl)quinoline-8-carbonitrile dihydrochloride]
2.26 nM	> 100 nM	23 nM	CC(C)Oc1cccc2ccc(-c3nnc4ccc([C@H](N5CC[C@@](C)(N)C5)C(F)(F)F)cn34)nc12 [Example 90, (R)-3-methyl-1-((S)-2,2,2-trifluoro-1-(3-(8-isopropoxyquinolin-2-yl)-[1,2,4]triazolo[4,3-a]pyridin-6-yl)ethyl)pyrrolidin-3-amine dihydrochloride]
0.25 nM	> 100 nM	2.6 nM	CC(C)Oc1cccc2ccc(-c3nnc4ccc([C@@H](N5CC[C@@](C)(N)C5)C(F)(F)F)cn34)nc12 [Example 91, (R)-3-methyl-1-((R)-2,2,2-trifluoro-1-(3-(8-isopropoxyquinolin-2-yl)-[1,2,4]triazolo[4,3-a]pyridin-6-yl)ethyl)pyrrolidin-3-amine dihydrochloride]
0.22 nM	33 nM	0.8 nM	CC(C)Oc1cccc2ccc(-c3nnc4ccc([C@H](N5CC[C@](C)(N)C5)C(F)(F)F)cn34)nc12 [Example 92, (S)-3-methyl-1-((S)-2,2,2-trifluoro-1-(3-(8-isopropoxyquinolin-2-yl)-[1,2,4]triazolo[4,3-a]pyridin-6-yl)ethyl)pyrrolidin-3-amine dihydrochloride]
0.2 nM	83 nM	0.9 nM	CC(C)Oc1cccc2ccc(-c3nnc4ccc([C@@H](N5CC[C@](C)(N)C5)C(F)(F)F)cn34)nc12 [Example 93, (S)-3-methyl-1-((R)-2,2,2-trifluoro-1-(3-(8-isopropoxyquinolin-2-yl)-[1,2,4]triazolo[4,3-a]pyridin-6-yl)ethyl)pyrrolidin-3-amine dihydrochloride]
0.29 nM	31 nM	4.6 nM	C[C@@]1(N)CCN([C@@H](c2ccc3nnc(-c4ccc5cccc(C6CC6)c5n4)n3c2)C(F)(F)F)C1 [Example 94, (R)-1-((S)-1-(3-(8-cyclopropylquinolin-2-yl)-[1,2,4]triazolo[4,3-a]pyridin-6-yl)-2,2,2-trifluoroethyl)-3-methylpyrrolidin-3-amine dihydrochloride]
0.19 nM	79 nM	3 nM	C[C@@]1(N)CCN([C@H](c2ccc3nnc(-c4ccc5cccc(C6CC6)c5n4)n3c2)C(F)(F)F)C1 [Example 95, (R)-1-((R)-1-(3-(8-cyclopropylquinolin-2-yl)-[1,2,4]triazolo[4,3-a]pyridin-6-yl)-2,2,2-trifluoroethyl)-3-methylpyrrolidin-3-amine dihydrochloride]
0.12 nM	5.4 nM	0.5 nM	C[C@]1(N)CCN([C@@H](c2ccc3nnc(-c4ccc5cccc(C6CC6)c5n4)n3c2)C(F)(F)F)C1 [Example 96, (S)-1-((S)-1-(3-(8-cyclopropylquinolin-2-yl)-[1,2,4]triazolo[4,3-a]pyridin-6-yl)-2,2,2-trifluoroethyl)-3-methylpyrrolidin-3-amine dihydrochloride]
0.11 nM	65 nM	8.1 nM	C[C@]1(N)CCN([C@H](c2ccc3nnc(-c4ccc5cccc(C6CC6)c5n4)n3c2)C(F)(F)F)C1 [Example 97, (S)-1-((R)-1-(3-(8-cyclopropylquinolin-2-yl)-[1,2,4]triazolo[4,3-a]pyridin-6-yl)-2,2,2-trifluoroethyl)-3-methylpyrrolidin-3-amine dihydrochloride]
